In US20250250230A1, “HETEROCYCLIC COMPOUND” (TAKEDA PHARMACEUTICAL COMPANY LIMITED, priority 2022, published 2025):

Biological target: T1, human orexin type 2 receptor (Homo sapiens, UniProt O43614)
T1 construct: expressed in transfected cells
T1 sequence (O43614 1-444): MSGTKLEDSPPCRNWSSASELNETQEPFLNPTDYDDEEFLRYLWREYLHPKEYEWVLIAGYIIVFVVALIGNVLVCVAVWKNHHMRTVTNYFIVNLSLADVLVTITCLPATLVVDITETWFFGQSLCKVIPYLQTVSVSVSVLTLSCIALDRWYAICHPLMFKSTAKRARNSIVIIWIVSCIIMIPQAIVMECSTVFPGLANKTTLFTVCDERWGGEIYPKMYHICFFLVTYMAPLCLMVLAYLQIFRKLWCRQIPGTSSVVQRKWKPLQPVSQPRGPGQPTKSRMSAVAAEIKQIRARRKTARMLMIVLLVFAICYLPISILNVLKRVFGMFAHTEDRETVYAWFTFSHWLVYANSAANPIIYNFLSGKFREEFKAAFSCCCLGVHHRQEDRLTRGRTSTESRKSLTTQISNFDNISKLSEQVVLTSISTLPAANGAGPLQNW
Test: Measurement of orexin type 2 receptor agonist activity (calcium fluorescence, Fluo-4 AM, FDSS)
Type: cell-based
Settings: test compound 3 μM; CHO cells expressing human OX2 receptor; DMSO = 0%, orexin A (human) = 100%
Outline: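 CHO-K1 cells stably expressing human OX2R were loaded with Fluo-4 AM (30 min 37 °C, 30 min RT) in HEPES-buffered HBSS with 0.1% BSA and probenecid. Calcium fluorescence was followed on FDSS for 2 min after compound addition; activity normalised to DMSO (0%) and 10 nM orexin A (100%).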

Structure (SMILES) | OX2R agonist activity (3 μM, %)
CS(=O)(=O)N[C@H]1C[C@@H](O)CN(C(=O)[C@@H]2C[C@@]2(F)c2ccccc2-c2c(F)cccc2F)C1 [Example 341, N-{(3S,5R)-1-[(1S,2S)-2-(2′,6′-difluoro[1,1′-biphenyl]-2-yl)-2-fluorocyclopropane-1-carbonyl]-5-hydroxypiperidin-3-yl}methanesulfonamide] | 101%
CS(=O)(=O)NC[C@@H]1CN(C(=O)[C@@H]2C[C@H]2c2ccccc2-c2c(F)cccc2F)CCO1 [Example 283, N-({(2S)-4-[(1R,2R)-2-(2′,6′-difluoro[1,1′-biphenyl]-2-yl)cyclopropane-1-carbonyl]morpholin-2-yl}methyl)methanesulfonamide] | 100%
CS(=O)(=O)N[C@H]1CCCN(C(=O)C2CC2c2ccc(F)cc2-c2c(F)cccc2F)C1 (stereo partly drawn) [Example 201, N-{(3S)-1-[(1R,2R)-2-(2′,5,6′-trifluoro[1,1′-biphenyl]-2-yl)cyclopropane-1-carbonyl]piperidin-3-yl}methanesulfonamide, or N-{(3S)-1-[(1S,2S)-2-(2′,5,6′-trifluoro[1,1′-biphenyl]-2-yl)cyclopropane-1-carbonyl]piperidin-3-yl}methanesulfonamide] | 101%
COCC1(C(=O)N2C[C@@H](F)[C@H]2CNS(C)(=O)=O)CC1c1ccc(F)cc1-c1c(F)cccc1F (stereo partly drawn) [Example 436, N-({(2R,3R)-3-fluoro-1-[(1R,2S)-1-(methoxymethyl)-2-(2′,5,6′-trifluoro[1,1′-biphenyl]-2-yl)cyclopropane-1-carbonyl]azetidin-2-yl}methyl)methanesulfonamide, or N-({(2R,3R)-3-fluoro-1-[(1S,2R)-1-(methoxymethyl)-2-(2′,5,6′-trifluoro[1,1′-biphenyl]-2-yl)cyclopropane-1-carbonyl]azetidin-2-yl}methyl)methanesulfonamide] | 99%
CS(=O)(=O)NC[C@@H]1[C@H](CO)CN1C(=O)[C@@H]1C[C@@]1(F)c1ccccc1-c1c(F)cccc1F [Example 384, N-{[(2S,3R)-1-[(1S,2S)-2-(2′,6′-difluoro[1,1′-biphenyl]-2-yl)-2-fluorocyclopropane-1-carbonyl]-3-(hydroxymethyl)azetidin-2-yl]methyl}methanesulfonamide] | 99%
C[C@H](NS(=O)(=O)C1(C)CC1)[C@@H]1CCN1C(=O)[C@@H]1C[C@@]1(F)c1ccccc1-c1c(F)cccc1F [Example 388, N-[(1S)-1-{(2S)-1-[(1S,2S)-2-(2′,6′-difluoro[1,1′-biphenyl]-2-yl)-2-fluorocyclopropane-1-carbonyl]azetidin-2-yl}ethyl]-1-methylcyclopropane-1-sulfonamide] | 98%
C[C@H](NS(=O)(=O)C1CC1)[C@@H]1CCN1C(=O)[C@@H]1C[C@@]1(F)c1ccccc1-c1c(F)cccc1F [Example 387, N-[(1S)-1-{(2S)-1-[(1S,2S)-2-(2′,6′-difluoro[1,1′-biphenyl]-2-yl)-2-fluorocyclopropane-1-carbonyl]azetidin-2-yl}ethyl]cyclopropanesulfonamide] | 99%
C[C@@H]1CN(C(=O)[C@@H]2C[C@@]2(F)c2ccccc2-c2c(F)cccc2F)[C@H]1CNS(C)(=O)=O [Example 357, N-({(2R,3R)-1-[(1S,2S)-2-(2′,6′-difluoro[1,1′-biphenyl]-2-yl)-2-fluorocyclopropane-1-carbonyl]-3-methylazetidin-2-yl}methyl)methanesulfonamide] | 96%
CS(=O)(=O)NC1CCCN(C(=O)C2CC2c2ccccc2-c2ccccc2Cl)CC1 (racemic) [Example 43, a mixture of rac-N-{(4R)-1-[(1R,2R)-2-(2′-chloro[1,1′-biphenyl]-2-yl)cyclopropane-1-carbonyl]azepan-4-yl}methanesulfonamide and rac-N-{(4S)-1-[(1R,2R)-2-(2′-chloro[1,1′-biphenyl]-2-yl)cyclopropane-1-carbonyl]azepan-4-yl}methanesulfonamide] | 92%
CC[C@@H]1CN(C(=O)[C@@H]2C[C@@]2(F)c2ccccc2-c2c(F)cccc2F)[C@@H]1CNS(C)(=O)=O [Example 380, N-({(2S,3R)-1-[(1S,2S)-2-(2′,6′-difluoro[1,1′-biphenyl]-2-yl)-2-fluorocyclopropane-1-carbonyl]-3-ethylazetidin-2-yl}methyl)methanesulfonamide] | 92%
CCS(=O)(=O)NC1COCCN(C(=O)[C@@H]2C[C@H]2c2ccccc2-c2c(F)cccc2F)C1 (stereo partly drawn) [Example 294, N-{(6S)-4-[(1R,2R)-2-(2′,6′-difluoro [1,1′-biphenyl]-2-yl)cyclopropane-1-carbonyl]-1,4-oxazepan-6-yl}ethanesulfonamide, or N-{(6R)-4-[(1R,2R)-2-(2′,6′-difluoro[1,1′-biphenyl]-2-yl)cyclopropane-1-carbonyl]-1,4-oxazepan-6-yl}ethanesulfonamide] | 104%
CN(C)S(=O)(=O)NC[C@@H]1CCN1C(=O)[C@@H]1C[C@H]1c1ccccc1-c1c(F)cccc1F [Example 259, N′-({(2S)-1-[(1R,2R)-2-(2′,6′-difluoro[1,1′-biphenyl]-2-yl)cyclopropane-1-carbonyl]azetidin-2-yl}methyl)-N,N-dimethylsulfuric Diamide] | 98%
COC[C@@H]1CN(C(=O)[C@@H]2C[C@@]2(F)c2ccccc2-c2c(F)cccc2F)[C@@H]1CNS(C)(=O)=O [Example 397, N-{[(2S,3R)-1-[(1S,2S)-2-(2′,6′-difluoro[1,1′-biphenyl]-2-yl)-2-fluorocyclopropane-1-carbonyl]-3-(methoxymethyl)azetidin-2-yl]methyl}methanesulfonamide] | 84%
CS(=O)(=O)NCC1N(C(=O)[C@@H]2C[C@@]2(F)c2ccccc2-c2c(F)cccc2F)CC1(F)F (stereo partly drawn) [Example 409, N-({(2R)-1-[(1S,2S)-2-(2′,6′-difluoro[1,1′-biphenyl]-2-yl)-2-fluorocyclopropane-1-carbonyl]-3,3-difluoroazetidin-2-yl}methyl)methanesulfonamide, or N-({(2S)-1-[(1S,2S)-2-(2′,6′-difluoro[1,1′-biphenyl]-2-yl)-2-fluorocyclopropane-1-carbonyl]-3,3-difluoroazetidin-2-yl}methyl)methanesulfonamide] | 100%

Further lines, results first:

OX2R agonist activity (3 μM, %) | Structure (SMILES)
68% | CS(=O)(=O)NC1CCN(C(=O)C2CC2c2ccccc2-c2ccccc2Cl)C1 (racemic) [Example 85, a mixture of rac-N-{(3R)-1-[(1R,2R)-2-(2′-chloro[1,1′-biphenyl]-2-yl)cyclopropane-1-carbonyl]pyrrolidin-3-yl}methanesulfonamide and rac-N-{(3S)-1-[(1R,2R)-2-(2′-chloro[1,1′-biphenyl]-2-yl)cyclopropane-1-carbonyl]pyrrolidin-3-yl}methanesulfonamide]
83% | CS(=O)(=O)NC1CCCN(C(=O)C2CC2c2ccccc2-c2cc(F)ccc2F)C1 (racemic) [Example 65, a mixture of rac-N-{(3R)-1-[(1R,2R)-2-(2′,5′-difluoro[1,1′-biphenyl]-2-yl)cyclopropane-1-carbonyl]piperidin-3-yl}methanesulfonamide and rac-N-{(3S)-1-[(1R,2R)-2-(2′,5′-difluoro[1,1′-biphenyl]-2-yl)cyclopropane-1-carbonyl]piperidin-3-yl}methanesulfonamide]
101% | CS(=O)(=O)N[C@H]1CCN(C(=O)C2C(c3ccccc3-c3c(F)cccc3F)C2(F)F)C1 (mixture of isomers) [Example 320, a mixture of N-{(3S)-1-[(1R,2R)-2-(2′,6′-difluoro[1,1′-biphenyl]-2-yl)-2,2-difluorocyclopropane-1-carbonyl]pyrrolidin-3-yl}methanesulfonamide and N-{(3S)-1-[(1S,3S)-3-(2′,6′-difluoro[1,1′-biphenyl]-2-yl)-2,2-difluorocyclopropane-1-carbonyl]pyrrolidin-3-yl}methanesulfonamide]
86% | CS(=O)(=O)NC1CCN(C(=O)C2CC2c2c(F)cccc2-c2ccccc2F)C1 (racemic) [Example 188, a mixture of rac-N-{(3R)-1-[(1R,2R)-2-(2′,3-difluoro[1,1′-biphenyl]-2-yl)cyclopropane-1-carbonyl]pyrrolidin-3-yl}methanesulfonamide and rac-N-{(3S)-1-[(1R,2R)-2-(2′,3-difluoro[1,1′-biphenyl]-2-yl)cyclopropane-1-carbonyl]pyrrolidin-3-yl}methanesulfonamide]
99% | CS(=O)(=O)N[C@H]1CCN(C(=O)C2CC2c2c(F)cccc2-c2c(F)cccc2F)C1 (single isomer, unassigned) [Example 195, N-{(3S)-1-[(1R,2R)-2-(2′,3,6′-trifluoro[1,1′-biphenyl]-2-yl)cyclopropane-1-carbonyl]pyrrolidin-3-yl}methanesulfonamide, or N-{(3S)-1-[(1S,2S)-2-(2′,3,6′-trifluoro[1,1′-biphenyl]-2-yl)cyclopropane-1-carbonyl]pyrrolidin-3-yl}methanesulfonamide]
93% | CS(=O)(=O)N[C@H]1CCCN(C(=O)[C@@H]2C[C@H]2c2ccccc2-c2c(F)cccc2F)CC1 [Example 25, N-{(4S)-1-[(1R,2R)-2-(2′,6′-difluoro[1,1′-biphenyl]-2-yl)cyclopropane-1-carbonyl]azepan-4-yl}methanesulfonamide]
